Reference: PMC3578829, “A Small Molecule (Pluripotin) as a Tool for Studying Cancer Stem Cell Biology: Proof of Concept” (PLoS ONE, 2013)
“Also recorded” adds a separate entry of the source.

Experiments:
Raf = conditions: cited from earlier work
MEK = conditions: cited from earlier work
PKC = conditions: cited from earlier work
COLO 205 = assay: Soft agar cloning assay; assay type: cell-based; conditions: 1.25 µM SL0101 for 24 hrs prior to cloning, evaluated 7 days later, all plating densities
Method: The soft agar colony formation assay has been previously described. In brief, for each treatment condition, triplicate 35 mm^2 dishes were coated with a 1 ml base layer containing 0.7% agarose (Seaplaque: FMC Corp., Rockland, ME). On day 0, cells were dissociated, washed once in growth medium, and subcultured by layering various cell concentrations in 0.5 ml culture medium containing 0.3% agarose onto the base coat. Culture dishes were transferred to a refrigerator (4°C) for 15 min, to room temperature for 10 min, and then to culture incubators. An upper layer of 0.5 ml culture medium was applied on day 0. Cultures were stained with MTT (1 mg/ml) for visualization and imaging at multiple time intervals (day 7 and 14). Cumulative counts of colonies (diameters, >60 µm) and cumulative volumes of CFU (diameters >120 µm) were determined with an Omnicon FAS-II (Bausch & Lomb, Rochester, NY) following calibration with an Omnicon test plate 3 and polystyrene microspheres embedded in soft agar matrix. The evaluable region of each culture dish (35 contiguous fields equivalent to 51% of the cell layer culture volume) was analyzed. Selective scoring of viable cell groups was achieved by adjustment of the instrument detection threshold to exclude images of nonstained cellular material and debris. The data was analyzed with Lotus Symphony software.

For CC(=O)O[C@@H]1[C@@H](OC(C)=O)[C@@H](O)[C@H](Oc2c(-c3ccc(O)cc3)oc3cc(O)cc(O)c3c2=O)O[C@H]1C [SL0101], the “Activity against Raf” value (Raf) is given as “no activity”, the “Activity against MEK” value (MEK) is given as “no activity” and the “Activity against PKC” value (PKC) is given as “no activity”. The “Colony formation (≥60 µm) in soft agar vs control” value (COLO 205) was “increased colony formation; also recorded: Statistically significant increases in colony formation”.
